Patent publication US9446039B2, “Aminoheteroaryl compounds as MTH1 inhibitors” (CEMM—FORSCHUNGSZENTRUM FÜR MOLEKULARE MEDIZIN GMBH, priority 2012, dated 2016)

Assays:
Format in all cases: binding
[1] = target: SW480 colon carcinoma cells lysate proteins (Homo sapiens, UniProt O43399); conditions: PreyGene TPD52L2
[2] = target: T1, SW480 colon carcinoma cells lysate proteins (Homo sapiens, UniProt P00492); conditions: PreyGene HPRT1
T1 sequence (P00492 1-218): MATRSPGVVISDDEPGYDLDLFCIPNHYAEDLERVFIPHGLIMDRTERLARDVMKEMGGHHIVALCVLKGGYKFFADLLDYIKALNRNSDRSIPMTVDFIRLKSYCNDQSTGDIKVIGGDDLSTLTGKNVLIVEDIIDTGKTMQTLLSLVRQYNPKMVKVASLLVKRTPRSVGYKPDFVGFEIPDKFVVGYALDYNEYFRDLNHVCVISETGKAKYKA

[3] = target: SW480 colon carcinoma cells lysate proteins (Homo sapiens, UniProt P07858); conditions: PreyGene CTSB
[4] = target: SW480 colon carcinoma cells lysate proteins (Homo sapiens, UniProt P23528); conditions: PreyGene CFL1
SW480 colon carcinoma cells lysate proteins (Homo sapiens, UniProt P23528), sequence (P23528 whole entry): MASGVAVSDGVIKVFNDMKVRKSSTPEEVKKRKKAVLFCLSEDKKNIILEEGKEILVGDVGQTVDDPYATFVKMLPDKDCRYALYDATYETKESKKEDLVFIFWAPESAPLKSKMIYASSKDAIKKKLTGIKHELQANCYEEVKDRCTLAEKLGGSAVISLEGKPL

[5] = target: SW480 colon carcinoma cells lysate proteins (Homo sapiens, UniProt P26447); conditions: PreyGene S100A4
SW480 colon carcinoma cells lysate proteins (Homo sapiens, UniProt P26447), sequence (P26447 whole entry): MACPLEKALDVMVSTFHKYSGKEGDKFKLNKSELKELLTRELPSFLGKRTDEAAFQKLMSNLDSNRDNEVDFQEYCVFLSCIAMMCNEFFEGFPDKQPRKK

[6] = target: T2, SW480 colon carcinoma cells lysate proteins (Homo sapiens, UniProt P55209); conditions: PreyGene NAP1L1
T2 sequence (P55209 1-391): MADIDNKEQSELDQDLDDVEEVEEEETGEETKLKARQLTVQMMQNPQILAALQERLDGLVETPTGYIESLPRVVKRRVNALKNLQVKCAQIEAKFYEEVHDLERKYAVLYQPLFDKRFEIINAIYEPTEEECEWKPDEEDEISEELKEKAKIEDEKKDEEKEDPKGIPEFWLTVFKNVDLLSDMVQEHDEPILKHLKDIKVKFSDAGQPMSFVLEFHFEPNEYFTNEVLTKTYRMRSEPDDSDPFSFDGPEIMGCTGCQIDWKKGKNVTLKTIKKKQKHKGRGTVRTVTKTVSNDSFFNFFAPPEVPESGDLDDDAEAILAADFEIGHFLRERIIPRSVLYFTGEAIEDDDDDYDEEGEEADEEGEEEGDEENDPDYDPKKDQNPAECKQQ

[7] = target: T3, SW480 colon carcinoma cells lysate proteins (Homo sapiens, UniProt Q8NFT6); conditions: PreyGene DBF4B
T3 sequence (Q8NFT6 1-615): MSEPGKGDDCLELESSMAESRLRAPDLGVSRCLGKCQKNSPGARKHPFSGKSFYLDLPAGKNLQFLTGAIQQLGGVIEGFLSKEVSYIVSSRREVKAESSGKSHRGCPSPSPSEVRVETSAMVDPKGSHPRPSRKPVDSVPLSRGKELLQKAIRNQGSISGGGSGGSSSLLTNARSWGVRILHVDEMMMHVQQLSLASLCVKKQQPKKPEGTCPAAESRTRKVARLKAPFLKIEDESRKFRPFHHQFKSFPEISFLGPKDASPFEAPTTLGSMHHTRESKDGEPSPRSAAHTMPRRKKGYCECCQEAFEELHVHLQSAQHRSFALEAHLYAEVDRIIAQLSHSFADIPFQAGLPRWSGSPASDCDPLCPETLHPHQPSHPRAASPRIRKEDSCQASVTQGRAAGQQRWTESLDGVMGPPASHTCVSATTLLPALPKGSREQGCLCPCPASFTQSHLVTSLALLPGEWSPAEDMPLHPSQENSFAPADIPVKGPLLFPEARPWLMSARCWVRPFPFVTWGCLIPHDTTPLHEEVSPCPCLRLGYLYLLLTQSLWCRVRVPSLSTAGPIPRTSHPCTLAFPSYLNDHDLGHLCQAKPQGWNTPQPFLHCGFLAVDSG

[8] = target: T4, SW480 colon carcinoma cells lysate proteins (Homo sapiens, UniProt Q9NSD9); conditions: PreyGene FARSB
T4 sequence (Q9NSD9 1-589): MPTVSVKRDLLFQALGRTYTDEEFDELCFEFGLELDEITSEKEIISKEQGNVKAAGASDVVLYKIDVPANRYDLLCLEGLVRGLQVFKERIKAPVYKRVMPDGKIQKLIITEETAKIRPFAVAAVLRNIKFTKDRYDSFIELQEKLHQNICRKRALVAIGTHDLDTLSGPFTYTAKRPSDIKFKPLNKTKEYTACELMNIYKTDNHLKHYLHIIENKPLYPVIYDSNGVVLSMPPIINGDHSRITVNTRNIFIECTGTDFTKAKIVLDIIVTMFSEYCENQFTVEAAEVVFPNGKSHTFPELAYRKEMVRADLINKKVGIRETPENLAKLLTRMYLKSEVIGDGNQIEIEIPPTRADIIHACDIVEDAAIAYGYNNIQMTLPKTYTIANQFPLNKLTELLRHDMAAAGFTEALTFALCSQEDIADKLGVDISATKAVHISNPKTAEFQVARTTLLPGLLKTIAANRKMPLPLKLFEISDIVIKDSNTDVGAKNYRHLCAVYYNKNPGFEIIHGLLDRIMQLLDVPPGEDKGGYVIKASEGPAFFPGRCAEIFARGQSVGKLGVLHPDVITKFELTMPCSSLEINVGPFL

SW480 colon carcinoma cells lysate proteins (Homo sapiens, UniProt O43399), sequence (O43399 whole entry): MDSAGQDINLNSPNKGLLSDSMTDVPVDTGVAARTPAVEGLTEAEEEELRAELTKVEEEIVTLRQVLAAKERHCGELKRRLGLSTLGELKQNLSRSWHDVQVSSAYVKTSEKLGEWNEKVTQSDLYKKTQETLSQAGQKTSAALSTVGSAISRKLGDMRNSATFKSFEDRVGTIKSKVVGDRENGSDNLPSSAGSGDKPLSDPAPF

C[C@H](Oc1cc(-c2cnn(C3CCNCC3)c2)cnc1N)c1c(Cl)ccc(F)c1Cl [(5)-crizotinib]
AvgP [1]: 0.191 | SC.Exp. 1-1 [1]: 0 | SC.Exp. 1-2 [1]: 2 | SC.Exp. 2-1 [1]: 0 | SC.Exp. 2-2 [1]: 0 | Sum (SC.Exp.) [1]: 2 | AvgP [2]: 0.1891 | SC.Exp. 1-1 [2]: 2 | SC.Exp. 1-2 [2]: 0 | SC.Exp. 2-1 [2]: 0 | SC.Exp. 2-2 [2]: 0 | Sum (SC.Exp.) [2]: 2 | AvgP [3]: 0.1845 | SC.Exp. 1-1 [3]: 0 | SC.Exp. 1-2 [3]: 2 | SC.Exp. 2-1 [3]: 0 | SC.Exp. 2-2 [3]: 0 | Sum (SC.Exp.) [3]: 2 | AvgP [4]: 0.3871 | SC.Exp. 1-1 [4]: 12 | SC.Exp. 1-2 [4]: 11 | SC.Exp. 2-1 [4]: 1 | SC.Exp. 2-2 [4]: 0 | Sum (SC.Exp.) [4]: 24 | AvgP [5]: 0.3894 | SC.Exp. 1-1 [5]: 3 | SC.Exp. 1-2 [5]: 2 | SC.Exp. 2-1 [5]: 0 | SC.Exp. 2-2 [5]: 0 | Sum (SC.Exp.) [5]: 5 | AvgP [6]: 0.2244 | SC.Exp. 1-1 [6]: 1 | SC.Exp. 1-2 [6]: 2 | SC.Exp. 2-1 [6]: 0 | SC.Exp. 2-2 [6]: 0 | Sum (SC.Exp.) [6]: 3 | AvgP [7]: 0.2 | SC.Exp. 1-1 [7]: 0 | SC.Exp. 1-2 [7]: 0 | SC.Exp. 2-1 [7]: 2 | SC.Exp. 2-2 [7]: 0 | Sum (SC.Exp.) [7]: 2 | AvgP [8]: 0.3413 | SC.Exp. 1-1 [8]: 3 | SC.Exp. 1-2 [8]: 2 | SC.Exp. 2-1 [8]: 0 | SC.Exp. 2-2 [8]: 0 | Sum (SC.Exp.) [8]: 5
